Source: US7815907B2, “Antibodies to insulin-like growth factor I receptor” (Amgen Fremont Inc., priority 2001, dated 2010)

What was measured:
[1] = target: T1, IGF-IR (Homo sapiens, UniProt P08069); assay: Species crossreactivity by immunoprecipitation/Western blot; type: binding; parameters: on cells from a variety of animals; endogenous in cells; conditions: immunoprecipitation, antibody 1 μg/ml
Description: To perform immunoprecipitation experiments, we plated cells in DMEM high glucose media supplemented with L-glutamine (0.29 mg/ml), 10% heat-inactivated FBS, and 500 μg/ml each of geneticin, penicillin and streptomycin to 50% confluence in T25 flasks. We then added 100 μl of an antibody of the invention in Hank's buffered saline solution (HBSS; Gibco BRL) at a concentration of 1 μg/ml. We incubated the plates for 30 minutes at 37° C. in an incubator and then stimulated the cells with IGF-I at 100 ng/ml for 10 minutes at room temperature. We lysed the cells in RIPA buffer (Harlow and Lane, supra) and immunoprecipitated IGF-IR with 2 μg of pan-specific SC-713 anti-IGF-IR antibody (Santa Cruz) plus protein A agarose beads for 1 hour at 4° C. We pelleted the beads and wash three times with PBS/T (PBS+0.1% Tween-20) and then boiled the beads in 40 μl Laemmli buffer containing 5% βME.
The samples prepared as described above were then analyzed by Western blot. We loaded 12 μl of each sample per lane on 4-10% gradient Novex™ gels run with 1×MES buffer (Novex™). Gels were run at 150V for 1 hour or at 200V for approximately 30 minutes. We then transferred the gel to a membrane in Novex™ transfer buffer with 10% methanol either overnight at 100 mA or for 1-1.5 hours at 250 mA. […]

[2] = system: 3T3/IGF-IR cell tumors; assay: Growth inhibition of 3T3/IGF-IR cell tumors; type: in vivo, athymic (nu/nu) mice
Description: We tested whether anti-IGF-IR antibodies of the invention would function to inhibit tumor growth. We induced tumors as described above (Example VIII) and when established, palpable tumors formed (i.e. 250 mm^3, within 6-9 days), we treated the mice with a single, 0.20 ml dose of antibody by intraperitoneal injection. We measured tumor size by Vernier calipers across two diameters every third day and calculated the volume using the formula (length×[width]^2)/2 using methods established by Geran, et al., “Protocols for screening chemical agents and natural products against animal tumors and other biological systems,” Cancer Chemother. Rep. 3:1-104.
Tumors were induced in nude mice as described in Example IX. Mice with established subcutaneous tumors of approximately 250 mm^3 were treated on days 1, 8, 15 and 22 with various amounts of 2.13.2 antibody (i.p.) or 7.5 mg/kg adriamycin (i.v.), either as single agents or in combination, as described in Example IX.
Tumors were induced in nude mice as described in Example IX. Mice with large established subcutaneous tumors of slightly less than 2000 mm^3 were treated on days 1 and 8 with various amounts of 2.13.2 antibody (i.p.) or 7.5 mg/kg adriamycin (i.v.), either as single agents or in combination, as described in Example IX. […] Control, antibody alone and adriamycin alone animal groups were terminated at day 5, when the tumor size exceeded 2000 mm^3.

[3] = target: T1, IGF-IR; assay: IGF-IR and IGF-IR phosphotyrosine levels in 3T3-IGF-IR tumors in vivo (ELISA); parameters: expressed in transfected cells; host or cells: NIH-3T3 (mouse fibroblasts); species or system athymic (nu/nu) mice
From the text: We determined whether the effects of the antibodies of the invention on IGF-IR as described in the previous examples would occur in vivo. We induced tumors in athymic mice according to published methods (V. A. Pollack et al., “Inhibition of epidermal growth factor receptor-associated tyrosine phosphorylation in human carcinomas with CP-358,774: Dynamics of receptor inhibition in situ and antitumor effects in athymic mice,” J. Pharmacol. Exp. Ther. 291:739-748 (1999). Briefly, we injected IGF-IR-transfected NIH-3T3 cells (5×10^6) subcutaneously into 3-4 week-old athymic (nu/nu) mice with 0.2 ml of Matrigel preparation. We then injected mice with an antibody of the invention intraperitoneally after established (i.e. approximately 400 mm^3) tumors formed.
After 24 hours, we extracted the tumors, homogenized them and determined the level of IGF-IR. To determine IGF-IR levels, we diluted the SC-713 antibody in Blocking buffer to a final concentration of […] and added 100 μl to each well of a Reacti-Bind Goat anti-rabbit (GAR) coated plate (Pierce). We incubated the plates at room temperature for 1 hour with shaking and then washed the plates five times with wash buffer. We then weighed tumor samples that had been prepared as described above and homogenized them in lysis buffer (1 ml/100 mg). We diluted 12.5 μl of tumor extract with lysis buffer to a final volume of 100 μl and added this to each well of a 96-well plate. We incubated the plates at room temperature with shaking for 1-2 hours and then washed the plates five times with Wash buffer. We then added 100 μl HRP-PY54 or biotinylated anti-IGF-IR antibody in Blocking buffer to each well and incubated at room temperature with shaking for 30 minutes. We then washed the plates five times with wash buffer and developed the plates. […] We then quantitated the signal by shaking for 10 seconds and measuring OD450nm. […]
Tumors were induced in nude mice as described in Example VIII. […] Tumors were extracted and IGF-IR levels were measured by ELISA as described in Example VIII.

[4] = intraperitoneal injection, tumors extracted after 24 hours

binding to human IGF-IR [1]: able to bind | IGF-IR receptor levels in tumors over time ([3]; 125 μg by intraperitoneal injection): down-regulated | IGF-IR phosphotyrosine (phosphorylated IGF-IR) in tumors [3, 4]: decrease | total IGF-IR protein in tumors [3, 4]: decrease
Substance: 2.13.2: human IgG2κ monoclonal antibody specific for IGF-IR from hybridoma 2.13.2 (ATCC PTA-2788)
tumor cell growth ([2]; antibody i.p. on days 1, 8, 15 and 22, single agent): inhibits tumor cell growth | growth delay versus treatment with the antibody or adriamycin alone ([2]; combination with single dose 7.5 mg/kg adriamycin i.v.): 7 days | tumor cell growth in combination with adriamycin ([2]; days 1, 8, 15 and 22, with 7.5 mg/kg adriamycin i.v.): enhances inhibition of tumor cell growth | effect on effectiveness of adriamycin ([2]; single dose antibody with single dose 7.5 mg/kg adriamycin i.v.): enhanced the effectiveness of adriamycin | tumor growth ([2]; single treatment i.p., antibody alone): inhibited the growth | efficacy against large tumors in combination with adriamycin ([2]; tumors slightly less than 2000 mm^3, days 1 and 8, with 7.5 mg/kg adriamycin i.v.): highly efficacious
